We go through 1 compound from patent publication US20110009332A1, “Therapeutic Treatment Of Wounds” (SOUTHWEST RESEARCH INSTITUTE, priority 2009, published 2011).

This experiment deals with incisional wounds of Sprague-Dawley rats. The experiment can be described thus: Incisional wound healing model: tensometry and wound thickness. Type of experiment: in vivo. The source says: Using a standard incisional wound healing model, two 6 cm linear incisions were made through the panniculus carnosum on the dorsal aspect of 10 to 12 week old male Sprague-Dawley rats 1 centimeter on either side of midline running cephalid to caudal using a prefabricated template. Three surgical clips were used to close the incision and serve as guides for sectioning on harvest day.
Rats were randomly assigned to 1 of 3 treatment groups, indentified by the treatment administered to the wound located on the left. All wounds located on the right, regardless of treatment group, received vehicle (100% DMSO) as a control. […] Treatment was administered by applying 100 micro liters into (at time of closure) or onto the wound every 24 hours for the first 48 hours beginning at the time of wound closure, totaling 3 doses per wound.
On days 7, 14 and 28 post-wounding, the rats were euthanized and the entire dorsal skin excised. Four 8 mm sample strips were cut perpendicular to the wounds, to incorporate both the treated wound and the adjacent vehicle wound. The sample strips were then cut in half, equidistance from the two parallel wounds, yielding a total of four samples per wound, and yielding a compliment vehicle wound for each treated sample. One cephalic and one caudle sample were immediately prepared for histology, with the remaining two strips immediately prepared for tensometry.
Prior to sample loading for testing by tensometry, the underlying subcutaneous fascia was removed to the level of the panniculus carnosum using sharp dissection, following a natural dissection plane. For the day 28 wounds, the 8 mm samples were divided into 4 mm strips prior to loading secondary to slippage issues encountered during the pilot study. Samples were loaded into a Lloyd Instrument materials testing system (model LRX plus, Fareham, Hampshire, UK) with a 50 N load cell, with the wounds perpendicular to the grips and pulled at a rate of 200 mm/min. Wound thickness, just superficial to epithelium and just deep to panniculus carnosum, was measured at the time of testing with digital calipers (Absolute Digimatic Caliper, Mitutoyo, Kawasaki, Kanagawa, Japan). The wound width was measured at a preload of 0.5N by obtaining the correlating still frame image from a hands free mounted video camera (HDR-SR1 Handycam® camcorder, Sony, San Diego, Calif.). These two measurements were then used to calculate the cross sectional area of the wounds and the subsequent tensile strength (N/mm^2).
A paired student's t-test was used for statistical comparisons between adjacent wounds. A tukey's comparison was used for statistical comparison of wounds between different rats. A Kruskal-Wallis test was used for comparing graded histology. A Chi square was used to determine statistical meaning of epithelial necrosis.

Where a SMILES comes first, the peptide text is derived from it. The star is where a group is joined. Cbz = O=C(OCc1ccccc1)*; OtBu = CC(C)(C)O*

`CC[C@H](C)[C@H](NC(=O)OCc1ccccc1)C(=O)N[C@@H](CCC(=O)OC(C)(C)C)C(=O)N[C@@H](C)C(=O)N[C@H](C=O)CC(C)C` [PS-1, Z-Ile-Glu(OBu^t)-Ala-Leu-H] (Cbz-IE(OtBu)AL-aldehyde): for the setting “after PS-1 treatment”, the “normalization of wound thickness (in words)” value is recorded as “normalized faster”. In addition, the “tensile strength vs untreated wounds (in words)” value is reported as “significantly lower” (day 7 post-wounding, high dose (5% w/w in DMSO), p=0.0223); “significantly lower” (day 7 post-wounding, low dose (1% w/w in DMSO), p=0.0121); “no significant difference” (day 28 post-wounding, 1% PI); “significantly increased tensile strength” (day 28 post-wounding, 5% PI, p=0.0269). Besides, the “tensile strength, differences between wounds (in words)” value (day 14 post-wounding, all wounds) is given as “no significant differences in tensile strength”. In addition, the “wound thickness vs untreated control wounds (in words)” value runs as follows: (day 28, 1% PI, p=0.057) “thinner than untreated control wounds, but just lacked significance”; (day 28, 5% PI, p=0.013) “significantly thinner”.
